# Reference: US20200199127A1, “(HETERO)ARYLALKYLAMINO-PYRAZOLOPYRIDAZINE DERIVATIVES HAVING MULTIMODAL ACTIVITY AGAINST PAIN” (priority 2017, published 2020)
# Key:
# [1] = molecular target: Human α2δ-1 subunit of Cav2.2 calcium channel (Homo sapiens, UniProt P54289); test: Human α2δ-1 subunit of Cav2.2 calcium channel assay, [3H]-Gabapentin binding; conditions: human α2δ-1 enriched membranes, 15 nM [3H]-Gabapentin; Ki as class symbol
# Method: Human α2δ-1 Subunit of Cav2.2 Calcium Channel Assay
# Human α2δ-1 enriched membranes (2.5 μg) were incubated with 15 nM of radiolabeled [3H]-Gabapentin in assay buffer containing Hepes-KOH 10 mM, pH 7.4. NSB (non specific binding) was measured by adding 10 μM pregabalin. The binding of the test compound was measured at five different concentrations. After 60 min incubation at 27° C., binding reaction was terminated by filtering through Multiscreen GF/C (Millipore) presoaked in 0.5% polyethyleneimine in Vacuum Manifold Station, followed by 3 washes with ice-cold filtration buffer containing 50 mM Tris-HCl, pH 7.4. Filter plates were dried at 60° C. for 1 hour and 30 μl of scintillation cocktail were added to each well before radioactivity reading. Readings were performed in a Trilux 1450 Microbeta radioactive counter (Perkin Elmer).
# [2] = molecular target: Human norepinephrine transporter (NET) (Homo sapiens, UniProt P23975); test: Binding assay to human norepinephrine transporter (NET), [3H]-Nisoxetin; conditions: human NET enriched membranes, 5 nM [3H]-Nisoxetin; Ki as class symbol
# Method: Binding Assay to Human Norepinephrine Transporter (NET).
# Human norepinephrine transporter (NET) enriched membranes (5 μg) were incubated with 5 nM of radiolabeled [3H]-Nisoxetin in assay buffer containing 50 mM Tris-HCl, 120 mM NaCl, 5 mM KCl, pH 7.4.
# NSB (non specific binding) was measured by adding 10 μM of desipramine. The binding of the test compound was measured at five different concentrations.. After 60 min incubation at 4° C., binding reaction was terminated by filtering through Multiscreen GF/C (Millipore) presoaked in 0.5% polyethyleneimine in Vacuum Manifold Station, followed by 3 washes with ice-cold filtration buffer containing 50 mM Tris-HCl, 0.9% NaCl, pH 7.4.
# Filter plates were dried at 60° C. for 1 hour and 30 μl of scintillation cocktail were added to each well before radioactivity reading.
# Human norepinephrine transporter (NET), sequence (P23975 whole entry): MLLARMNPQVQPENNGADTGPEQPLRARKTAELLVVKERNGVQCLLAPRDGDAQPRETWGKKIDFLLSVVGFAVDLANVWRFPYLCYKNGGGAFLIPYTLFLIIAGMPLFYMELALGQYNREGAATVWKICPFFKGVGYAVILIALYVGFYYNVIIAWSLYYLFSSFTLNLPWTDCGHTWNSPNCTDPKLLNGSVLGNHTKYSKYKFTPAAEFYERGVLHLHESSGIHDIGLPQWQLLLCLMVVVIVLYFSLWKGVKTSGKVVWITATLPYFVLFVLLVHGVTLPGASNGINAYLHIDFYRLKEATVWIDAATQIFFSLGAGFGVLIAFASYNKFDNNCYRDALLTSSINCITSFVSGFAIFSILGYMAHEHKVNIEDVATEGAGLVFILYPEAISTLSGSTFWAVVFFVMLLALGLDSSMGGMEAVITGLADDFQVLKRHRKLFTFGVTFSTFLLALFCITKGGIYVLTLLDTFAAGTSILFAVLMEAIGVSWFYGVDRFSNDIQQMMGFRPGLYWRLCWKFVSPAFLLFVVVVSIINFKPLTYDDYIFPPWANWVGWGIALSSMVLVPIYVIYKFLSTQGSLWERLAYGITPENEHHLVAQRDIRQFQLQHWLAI
# Human α2δ-1 subunit of Cav2.2 calcium channel, sequence (P54289 25-1103): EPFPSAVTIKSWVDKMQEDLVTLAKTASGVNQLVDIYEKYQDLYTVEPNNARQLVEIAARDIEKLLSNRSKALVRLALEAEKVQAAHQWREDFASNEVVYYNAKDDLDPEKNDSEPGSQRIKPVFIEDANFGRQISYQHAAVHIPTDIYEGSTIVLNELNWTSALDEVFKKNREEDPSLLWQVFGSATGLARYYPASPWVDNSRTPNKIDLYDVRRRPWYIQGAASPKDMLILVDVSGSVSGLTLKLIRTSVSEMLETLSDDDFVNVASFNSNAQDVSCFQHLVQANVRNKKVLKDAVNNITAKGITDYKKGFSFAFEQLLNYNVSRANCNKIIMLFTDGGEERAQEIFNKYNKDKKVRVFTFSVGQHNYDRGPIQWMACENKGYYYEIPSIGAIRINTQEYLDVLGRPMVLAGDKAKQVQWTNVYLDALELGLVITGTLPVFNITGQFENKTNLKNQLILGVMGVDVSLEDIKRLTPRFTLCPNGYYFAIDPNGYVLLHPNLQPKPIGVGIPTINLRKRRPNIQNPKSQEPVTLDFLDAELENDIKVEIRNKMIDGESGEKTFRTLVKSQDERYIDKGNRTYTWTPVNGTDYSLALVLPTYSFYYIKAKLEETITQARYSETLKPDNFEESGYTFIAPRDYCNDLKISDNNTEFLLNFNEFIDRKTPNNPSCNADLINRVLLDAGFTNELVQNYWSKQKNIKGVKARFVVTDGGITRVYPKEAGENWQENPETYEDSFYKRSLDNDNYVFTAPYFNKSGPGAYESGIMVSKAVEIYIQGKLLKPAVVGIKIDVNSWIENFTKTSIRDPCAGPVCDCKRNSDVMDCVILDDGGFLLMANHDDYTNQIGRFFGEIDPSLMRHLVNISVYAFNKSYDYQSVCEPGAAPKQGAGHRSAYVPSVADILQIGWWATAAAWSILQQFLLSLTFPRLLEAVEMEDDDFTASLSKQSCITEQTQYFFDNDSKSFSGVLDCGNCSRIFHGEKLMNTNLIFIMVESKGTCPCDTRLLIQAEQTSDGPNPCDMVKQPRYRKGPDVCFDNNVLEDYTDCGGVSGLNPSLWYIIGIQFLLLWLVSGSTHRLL
Structure (SMILES),Ki [1] [nM],Ki [2] [nM]
"CCOc1ccc(-n2nc3c(N(CCO)Cc4ccccn4)nnc(C)c3c2C)c(F)c1 [Example 56, 2-((2-(4-ethoxy-2-fluorophenyl)-3,4-dimethyl-2H-pyrazolo[3,4-d]pyridazin-7-yl)(pyridin-2-ylmethyl)amino)ethanol]",500 to 5000,500 to 1000
"CCOc1ccc(-n2nc3c(N(C)CCn4cnc5ccccc54)nnc(C)c3c2C)c(F)c1 [Example 58, N-(2-(1H-Benzo[d]imidazol-1-yl)ethyl)-2-(4-ethoxy-2-fluorophenyl)-N,3,4-trimethyl-2H-pyrazolo[3,4-d]pyridazin-7-amine]",500 to 5000,> 1000
"CCOc1ccc(-n2nc3c(NCCC4(c5ccccn5)CCOC5(CCCC5)C4)nnc(C)c3c2C)c(F)c1 (stereo not shown) [Example 59, 2-(4-ethoxy-2-fluorophenyl)-3,4-dimethyl-N-(2-(9-(pyridin-2-yl)-6-oxaspiro[4.5]decan-9-yl)ethyl)-2H-pyrazolo[3,4-d]pyridazin-7-amine]",≥ 5000,> 1000

# The next lines start with the values.
Ki [1] [nM],Ki [2] [nM],Structure (SMILES)
500 to 5000,> 1000,"CCOc1ccc(-n2nc3c(N(C)C(CCO)c4ccccc4)nnc(C)c3c2C)c(F)c1 (stereo not shown) [Example 54, 3-((2-(4-ethoxy-2-fluorophenyl)-3,4-dimethyl-2H-pyrazolo[3,4-d]pyridazin-7-yl)(methyl)amino)-3-phenylpropan-1-ol]"
≥ 5000,> 1000,"CCOc1ccc(-n2nc3c(N(CCO)Cc4cccnc4)nnc(C)c3c2C)c(F)c1 [Example 57, 2-((2-(4-ethoxy-2-fluorophenyl)-3,4-dimethyl-2H-pyrazolo[3,4-d]pyridazin-7-yl)(pyridin-3-ylmethyl)amino)ethanol]"
